Results taken from article PMC5483439, “The Effect of Pungent and Tingling Compounds from Piper nigrum L. on Background K^+ Currents” (Frontiers in Pharmacology, 2017).

Key:
hKCNK3 = molecular target: T1, hKCNK3 (Homo sapiens, UniProt O14649); assay: Two-electrode voltage clamp on Xenopus laevis oocytes expressing hKCNK3; type: cell-based; settings: for effect on basal activity of hKCNK3: 1 mM; for effect on basal activity of hKCNK3 / IC50: Xenopus oocytes; for IC50: current at +50 mV normalized to pre-application, read-out: IC50 on hKCNK3; for % of basal activity after saturating concentrations: hKCNK3 in Xenopus oocytes
T1 construct: expressed in transfected cells; host or cells: Xenopus laevis oocytes injected with cRNA (plasmid pIRES-CD8, gift of Dr. Fabrice Duprat)
From the text: (§1) Human KCNK3 (TASK-1, K2P3.1) cloned into the expression vector pIRES-CD8 was a gift from Dr. Fabrice Duprat (Institut National de la Santé et de la Recherche Médicale, Antipolis, France). Human KCNK18 (hTRESK, K2P18.1), cloned into the plasmid pEXO, was a gift from Dr. P. Enyedi (Semmelweis University, Budapest, Hungary). These plasmids were linearized with the restriction enzymes BamHI and XbaI, respectively, and then used as templates for in vitro transcription. Human KCNK9 (hTASK-3, K2P9.1) cloned into the expression vector pCR4-TOPO, was purchased from Imagenes (Berlin, Germany). The plasmid was linearized with the restriction enzyme SspI, to generate a linear cDNA template for in vitro transcription. mKCNK3 was isolated from mouse heart by standard procedures and inserted into pSGEM. mKCNK9 and mKCNK18 were kindly provided by Dr. D. Bayliss (University of Virginia, Charlottesville, VA, United States) and Prof. Dr. P. Enyedi (Semmelweis University, Budapest, Hungary). Both channels were subcloned into pSGEM. The pSGEM plasmids were subsequently linearized with the restriction enzyme PacI. The capped RNAs were synthesized in the presence of the capping analog m7G(5′)ppp(5′)G using the AmpliCap-T7 Message Maker kit (Epicentre, Madison, WI, United States). The cRNA was dissolved in nuclease-free water to obtain a final concentration of 100 ng/μL.
(§2) The expression in Xenopus laevis oocytes was essentially performed as previously described ([Beltrán et al., 2013]). Briefly, mature female Xenopus laevis frogs were anesthetized with 0.15% MS-222, and surgery was performed according to standard methods, where the extracted ovarian lobes were placed into Ca^2+-free Barth solution containing collagenase type II (Worthington Biochemical Corporation, Lakewood, NJ, United States) and kept for 90 min on a shaker at 40 rpm (room temperature). Healthy stage V and VI oocytes were selected for injection with cRNA coding for the proteins of interest. Thirty nanoliters of cRNA (100 ng/μL) of each channel were injected using a Microinjector Micro 4 ^TM (World Precision Instruments). After injection, the oocytes were kept in ND96 (96 mM NaCl; 2 mM KCl; 1.8 mM CaCl2; 1 mM MgCl2; 2.5 mM Sodium pyruvate; 10 mM, HEPES [4-(2-hydroxyethyl)-1-piperazineethanesulfonic acid), pH 7.4]. The measurements were performed 24 to 72 h after injection. The oocytes were placed in a 100 μL chamber that was perfused with frog Ringer’s solution (115 mM NaCl; 2.5 mM KCl; 1.8 mM CaCl2, and 10 mM HEPES, pH 7.2). The substances were dissolved in this solution before being manually applied to the oocytes using an automatic pipette (Research pro, Eppendorf, Germany). The application time was usually three ramps (approximately 10 s). For recording, a Turbo Tec-03x (npi electronic GmbH, Tamm, Germany) amplifier was used, with an acquisition rate of 1000 Hz and a low pass filter of 20 Hz. Borosilicate glass capillaries were pulled with a Kopf vertical pipette puller. The pulled glass capillaries were filled with 3 M KCl.
A ramp series protocol was used to evaluate the activity of KCNK channels as previously described ([Beltrán et al., 2013]). Briefly, voltage ramps from –100 mV to + 50 mV ([…]) followed by a constant of +50 mV (150 ms) were applied at a time interval of 2 s. […] This value was then normalized to the average obtained from three ramps prior to the application. In most cases, the currents elicited by this voltage-clamp ramp series protocol were more than ten times larger than the background currents observed in uninjected oocytes, while also presenting the described outward rectification under physiological concentrations of intracellular and extracellular K^+ ([Goldstein et al., 2001]; [Enyedi and Czirják, 2010]). Due to these characteristics, no leakage subtraction was considered necessary. Oocytes not fulfilling these characteristics were not considered for data analysis. […]

hKCNK9 = molecular target: T2, hKCNK9 (Homo sapiens, UniProt Q9NPC2); assay: Two-electrode voltage clamp on Xenopus laevis oocytes expressing hKCNK9; type: cell-based; settings: for effect on basal activity of hKCNK9: 1 mM
T2 construct: host or cells: Xenopus laevis oocytes injected with cRNA (plasmid pCR4-TOPO)
From the text: as §1
as §2, with “For recording, a Turbo Tec-03x (npi electronic GmbH, Tamm, Germany) amplifier was used, with an acquisition rate of 1000 Hz and a low pass filter of 20 Hz. Borosilicate glass capillaries were pulled with a Kopf vertical pipette puller. The pulled glass capillaries were filled with 3 M KCl.” left out

hKCNK18 = molecular target: T3, hKCNK18 (Homo sapiens, UniProt Q7Z418); assay: Two-electrode voltage clamp on Xenopus laevis oocytes expressing hKCNK18; type: cell-based; settings: for effect on basal activity of hKCNK18: 1 mM
T3 construct: expressed in transfected cells; host or cells: Xenopus laevis oocytes injected with cRNA (plasmid pEXO, gift of Dr. P. Enyedi)
T3 sequence (Q7Z418 1-384): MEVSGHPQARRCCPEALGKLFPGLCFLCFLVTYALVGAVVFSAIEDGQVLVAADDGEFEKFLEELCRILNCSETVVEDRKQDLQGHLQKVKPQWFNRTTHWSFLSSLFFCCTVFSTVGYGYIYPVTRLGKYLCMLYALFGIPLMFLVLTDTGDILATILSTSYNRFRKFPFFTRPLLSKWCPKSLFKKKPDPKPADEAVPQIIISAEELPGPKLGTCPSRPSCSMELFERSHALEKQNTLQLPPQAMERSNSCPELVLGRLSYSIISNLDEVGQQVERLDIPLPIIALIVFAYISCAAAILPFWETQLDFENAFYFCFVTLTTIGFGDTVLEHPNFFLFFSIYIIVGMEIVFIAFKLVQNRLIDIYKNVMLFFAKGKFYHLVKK
From the text: as §1
The expression in Xenopus laevis oocytes was essentially performed as previously described ([Beltrán et al., 2013]). Briefly, mature female Xenopus laevis frogs were anesthetized with 0.15% MS-222, and surgery was performed according to standard methods, where the extracted ovarian lobes were placed into Ca^2+-free Barth solution containing collagenase type II (Worthington Biochemical Corporation, Lakewood, NJ, United States) and kept for 90 min on a shaker at 40 rpm (room temperature). Healthy stage V and VI oocytes were selected for injection with cRNA coding for the proteins of interest. Thirty nanoliters of cRNA (100 ng/μL) of each channel were injected using a Microinjector Micro 4 ^TM (World Precision Instruments). […]

tongue surface = test system: tongue surface; parameters: method as in Dawid et al., 2012; settings: human, ref Dawid et al., 2012, cited from earlier work; for pungent threshold concentration: filter paper on tongue
[1] = test system: background current of mouse trigeminal neurons; assay: Whole-cell patch clamp on cultured mouse trigeminal neurons; type: cell-based; settings: 100 μM XE-991, Na+/Ca2+-free solution
Procedure: Trigeminal ganglia neurons were isolated from Swiss CD-1 mice (Charles River Laboratories, Sulzfeld, Germany). All experiments involving animals were carried out in accordance with the European Union Community Council’s guidelines and approved by the competent state office of the Federal Land of Northrhine Westphalia (file number 87-51.04.2010.A180). At postnatal day 2–5, the mice were sacrificed by decapitation. The brain was removed, and both trigeminal ganglia were excised. The ganglia were washed in PBS+/+ (Invitrogen, Karlsruhe, Germany) and collected in Leibovitz Medium (L15, Invitrogen) on ice. The ganglia were transferred to Dulbecco’s modified essential medium (DMEM) containing 0.025% collagenase (type IA, Sigma–Aldrich). The minced ganglia were incubated for 45 min in a humidified atmosphere (37°C, 95% humidity, 6% CO2) before trituration. The cell suspension was centrifuged at 1000 rpm for 4 min at room temperature and the pellet was resuspended in F-12 medium (Invitrogen; 31331-D-MEM/F-12, GlutaMax^TM) supplemented with 10% fetal bovine serum (FBS^TM; Invitrogen), 200 U/mL penicillin and 200 U/mL streptomycin. The cell suspension (50 μL) was then plated on poly L-lysine (0.01%) coated glass coverslips (30 mm, Sarstedt, Nümbrecht, Germany), placed in cell culture dishes (35 mm) and kept in a humidified atmosphere (37°C, 95% humidity, 6% CO2) for 1 h. Subsequently, F-12 medium (2 mL) supplemented with FBS (10%), 200 U/mL penicillin and 200 U/mL streptomycin was added to each dish. The cells were kept in an incubator (37°C, 95% humidity, 6% CO2) until use.
The recordings were performed using the whole-cell configuration of the patch-clamp technique. The cells were maintained in an extracellular recording solution containing 140 mM NaCl, 5 mM KCl, 2 mM MgCl2, 2 mM CaCl2, 10 mM HEPES and 10 mM glucose, pH 7.4. The Ca^2+ and Na^+- free extracellular solution contained: 140 mM NMDG-Cl, 5 mM KCl, 2 mM MgCl2, 5 mM EGTA, 10 mM HEPES, pH 7.4. The patch electrodes were pulled from borosilicate glass (1.2 mm OD × 1.17 mm ID; Harvard apparatus, Edenbridge, Kent, United Kingdom) and fire polished to 2.5–4 MΩ tip resistance using a horizontal pipette puller (Zeitz Instruments, Munich, Germany) to obtain a patch of approximately 1–2 μm diameter. The pipette solution contained 140 mM KCl, 1 mM MgCl2, and 10 mM HEPES, pH 7.4. All recordings were performed at room temperature with an EPC7 amplifier (List-Medical Electronic, Darmstadt, Germany). The capacity and serial resistance were adjusted manually. The substances were applied via a custom-made manifold superfusion device. […] The data were acquired using Pulse software (HEKA, Lambrecht, Germany) and analyzed with PulseFit (HEKA, Lambrecht, Germany). Unless otherwise stated, the data are expressed as the mean ± SEM. […]

T2 sequence (Q9NPC2 whole entry): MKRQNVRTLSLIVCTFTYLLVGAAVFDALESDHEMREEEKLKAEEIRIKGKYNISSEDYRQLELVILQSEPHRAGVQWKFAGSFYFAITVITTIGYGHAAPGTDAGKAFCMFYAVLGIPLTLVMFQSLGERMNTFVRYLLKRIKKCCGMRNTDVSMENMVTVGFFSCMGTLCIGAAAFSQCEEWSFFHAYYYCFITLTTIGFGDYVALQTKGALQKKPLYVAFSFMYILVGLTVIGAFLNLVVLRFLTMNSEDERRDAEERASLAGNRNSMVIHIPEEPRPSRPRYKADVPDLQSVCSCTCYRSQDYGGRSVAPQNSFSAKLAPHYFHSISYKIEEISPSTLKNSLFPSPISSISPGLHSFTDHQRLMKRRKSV
T1 sequence (O14649 whole entry): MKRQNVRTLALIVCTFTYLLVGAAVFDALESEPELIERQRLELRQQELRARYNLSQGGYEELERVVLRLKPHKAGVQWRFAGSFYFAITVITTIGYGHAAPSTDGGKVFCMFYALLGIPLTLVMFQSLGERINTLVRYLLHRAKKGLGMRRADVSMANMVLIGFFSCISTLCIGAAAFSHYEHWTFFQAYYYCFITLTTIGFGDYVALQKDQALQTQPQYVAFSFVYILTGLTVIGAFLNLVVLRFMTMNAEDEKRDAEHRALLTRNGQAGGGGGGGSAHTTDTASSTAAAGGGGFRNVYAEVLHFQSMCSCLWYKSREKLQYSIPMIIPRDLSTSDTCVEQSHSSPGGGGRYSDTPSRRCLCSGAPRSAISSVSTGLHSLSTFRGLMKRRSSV

Row | Compound | effect on basal activity of hKCNK3 (hKCNK3) | IC50 (hKCNK3) | % of basal activity after saturating concentrations (hKCNK3) | effect on basal activity of hKCNK9 (hKCNK9) | effect on basal activity of hKCNK18 (hKCNK18) | pungent threshold concentration (tongue surface) | threshold for oral pungency (tongue surface) | IC50 (hKCNK18; N = 3–6) | IC50 (hKCNK9; N = 3–6) | effect of pre-incubation on background current [1]
1 | CC(C)CNC(=O)/C=C/C=C/c1ccc2c(c1)OCO2 [1c, piperlonguminine] | decrease in their basal activity | 113 ± 79.5 µM | 50 ± 14% | decrease in their basal activity | decrease in their basal activity | 10.4 nmol/cm^2 | 0.01 μmol/cm^2 |  |  | 
2 | O=C(/C=C/C=C/c1ccc2c(c1)OCO2)N1CCCC1 [1b, piperyline] | decrease in their basal activity | 180 ± 39 µM | 55 ± 5% | decrease in their basal activity | decrease in their basal activity | 5.1 nmol/cm^2 | 0.005 μmol/cm^2 | 252 ± 55 µM |  | 
3 | 1-(octadeca-2E,4E,13/12Z-trienoyl)-pyrrolidine [5b/6b] | most pronounced effect | 19 ± 2.1 µM | 27 ± 3% | inhibited |  |  |  |  | 236 ± 56 µM | 
4 | O=C1c2ccccc2C(Cc2ccncc2)(Cc2ccncc2)c2ccccc21 [XE-991, reference compound] |  |  |  |  |  |  |  |  |  | marked decrease
